Data taken from PubChem BioAssay (NCI).
Values joined by “and” are separate entries in the source; they are usually repeats but may differ in a detail not shown here. Identical values can stand only once.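 These data come from cells grown in 96-well plates and exposed to compound for 48 hours at five concentrations. GI50: concentration for 50% inhibition of growth. TGI: concentration producing complete growth inhibition.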

Columns and labels:
Experiment in all cases: NCI tumour cell line growth inhibition, 48 h
NCI-H522 lung = system: NCI-H522 lung
HS 578T breast = system: HS 578T breast
SNB-75 CNS = system: SNB-75 CNS
M14 melanoma = system: M14 melanoma
IGROV1 ovarian = system: IGROV1 ovarian
A549 NSCLC = system: A549 NSCLC
SK-MEL-5 melanoma = system: SK-MEL-5 melanoma
U251 CNS = system: U251 CNS
RXF 393 renal = system: RXF 393 renal
UO-31 renal = system: UO-31 renal

Row | Structure (SMILES) | GI50 (NCI-H522 lung) | TGI (NCI-H522 lung) | GI50 (HS 578T breast) | TGI (HS 578T breast) | GI50 (SNB-75 CNS) | TGI (SNB-75 CNS) | GI50 (M14 melanoma) | TGI (M14 melanoma) | GI50 (IGROV1 ovarian) | TGI (IGROV1 ovarian) | GI50 (A549 NSCLC) | TGI (A549 NSCLC) | GI50 (SK-MEL-5 melanoma) | TGI (SK-MEL-5 melanoma) | GI50 (U251 CNS) | TGI (U251 CNS) | GI50 (RXF 393 renal) | TGI (RXF 393 renal) | GI50 (UO-31 renal) | TGI (UO-31 renal)
1 | CCOC1Oc2ccccc2C(=O)/C1=C\Nc1ccc(C(=O)O)c(O)c1 (stereo not given) | > 100 µM | > 100 µM | 35 µM | 90 µM | 20.3 µM | 58.3 µM | 17.3 µM | 36 µM | 43.9 µM | > 100 µM | > 100 µM | > 100 µM | 18.6 µM | 37.4 µM | 19.1 µM | 46.5 µM | 16.9 µM | 41.9 µM | 40.2 µM | > 100 µM
2 | Cc1cnc(-c2ccc(-c3ccc(NC(=O)Nc4cccc(C(F)(F)F)c4)cc3F)c3c2C(=O)NC3)[nH]1 | 15.4 µM | 42.7 µM | 2.46 µM | 35.4 µM | 1.29 µM | 25.5 µM | 0.624 µM | 32.9 µM | 1.97 µM | 32.2 µM | 7.49 µM | > 47.9 µM | 23.6 µM | > 65.6 µM | 11.3 µM | 32 µM | 2.42 µM | 21.3 µM | 3 µM | > 50.5 µM
3 | CCc1c2c(nc3ccc(OC(=O)OCc4ccc(B5OC(C)(C)C(C)(C)O5)cc4)cc13)-c1cc3c(c(=O)n1C2)COC(=O)[C@]3(O)CC | 0.0196 µM | 14.2 µM | 0.547 µM | 19.8 µM | < 0.0117 µM | 0.184 µM | < 0.01 µM | 0.92 µM | 0.1 µM | 3.48 µM | 0.0556 µM | 5.45 µM | 0.0217 µM | 0.118 µM | < 0.01 µM | > 34.3 µM | 0.0136 µM | 0.134 µM | 0.0189 µM | 0.339 µM
4 | CCCCNP1(NCCCC)=NP(NCCCC)(NCCCC)=NP(NCCCC)(NCCCC)=NP(NCCCC)(NCCCC)=N1 | 0.287 µM | 4.3 µM | 1.43 µM | 7.71 µM | 3.13 µM | 15.8 µM | 1.08 µM | 5.23 µM | 0.584 µM | 11.6 µM | 0.593 µM | 4.03 µM | 0.541 µM | 1.89 µM | 0.296 µM | 3.81 µM | 1.97 µM | 10.2 µM | 2.81 µM | 14.4 µM
5 | O=C(O)C1C2C=CC(O2)C1C(=O)NCc1ccncc1 (stereo not given) |  | > 100 µM |  | > 100 µM |  | > 100 µM |  | > 100 µM |  | > 100 µM |  | > 100 µM |  | > 100 µM |  | > 100 µM |  | > 100 µM |  | > 100 µM
6 | COc1ccc(C2CC(c3ccc4ccccc4c3)=NN2c2nc(O)c(C3=c4cc(Cl)ccc4=NC3=O)s2)cc1 (stereo not given) | 0.0183 µM and < 0.005 µM | 0.0402 µM and < 0.005 µM | 0.0283 µM | 0.0973 µM | 0.0171 µM | 0.0408 µM | 0.0354 µM and < 0.005 µM |  | 0.0254 µM | 0.0736 µM | 0.0251 µM and < 0.005 µM |  | 0.0175 µM and < 0.005 µM | 0.0337 µM and < 0.005 µM | 0.0199 µM and < 0.005 µM | 0.0414 µM and < 0.005 µM | 0.0186 µM and < 0.005 µM | 0.0389 µM and < 0.005 µM | 0.0193 µM and < 0.005 µM | 0.0436 µM and < 0.005 µM
7 | CC(=O)OCC1OC([S-])C(OC(C)=O)C(OC(C)=O)C1OC(C)=O.[Au+].c1ccc(CN2[CH-]N(Cc3ccccc3)C(c3ccccc3)=C2c2ccccc2)cc1 | 2.03 µM and 0.551 µM | 4.7 µM and 1.56 µM | 2.62 µM and 0.396 µM | 8.56 µM and 7.74 µM | 1.83 µM and 0.412 µM | 7.21 µM and 4.4 µM | 2.27 µM and 0.798 µM | 5.66 µM and 3 µM | 1.83 µM and 0.514 µM | 3.91 µM and 1.44 µM |  | 34.7 µM and 7.32 µM | 4.95 µM and 0.839 µM |  | 1.74 µM and 0.251 µM | 3.2 µM and 0.942 µM | 1.71 µM and 0.527 µM | 3.19 µM and 1.26 µM | 1.83 µM and 0.445 µM | 4.31 µM and 1.99 µM
8 | CN(CO)c1nc(N(C)CO)nc(N(C)CO)n1 |  | 43.9 µM and 53.7 µM | 21.4 µM | 55 µM and 78.3 µM | 16.4 µM | 53.3 µM and 32 µM | 19.5 µM | 36.4 µM and 42.8 µM | 16.1 µM | 67.1 µM and 79.1 µM | 23.5 µM | 64 µM and 26.3 µM | 18.1 µM | 32.2 µM and 33.8 µM | 29.6 µM | 72.8 µM and 46.2 µM | 18 µM | 34.1 µM and 22.9 µM | 27.6 µM | 50.3 µM and 56.2 µM
9 | N#Cc1ccc(O)c(C2=NCC(c3ccc(-c4ccccc4)cc3)O2)c1 (stereo not given) | 0.4 µM | 10.6 µM | 0.867 µM | 31.9 µM | 0.625 µM | 14.4 µM | 0.399 µM | 2.95 µM | 0.478 µM | 14.3 µM | 0.418 µM | 8.06 µM | 0.532 µM | 2.28 µM | 0.326 µM | 11.6 µM | 0.487 µM | 5.55 µM | 0.406 µM | 4.13 µM
10 | C=C1C(=O)O[C@H]2[C@H]1CC/C(CNC(=O)C(C)c1ccc(CC(C)C)cc1)=C\CC[C@@]1(C)O[C@@H]21 (stereo not given in full) | 1.63 µM | 3.5 µM | 2.24 µM | 7.46 µM | 1.34 µM | 2.63 µM | 1.85 µM | 3.98 µM | 1.59 µM | 3.43 µM | 2.37 µM | 6.72 µM | 1.71 µM | 3.08 µM | 1.67 µM | 3.1 µM | 1.31 µM | 2.61 µM | 1.33 µM | 2.6 µM
11 | COc1ccc2c(c1)C(=O)/C(=C/c1cccc(OCC(=O)c3ccc([N+](=O)[O-])cc3)c1)CO2 | 3.5 µM | 9.41 µM | 2.73 µM | 12.2 µM | 1.83 µM | 8.09 µM | 2.19 µM | 4.32 µM | 1.48 µM | 3.86 µM | 6.72 µM | 22.8 µM | 2.79 µM | 8.05 µM | 1.6 µM | 3.16 µM | 1.89 µM | 4.32 µM | 1.47 µM | 4.02 µM
12 | N#Cc1ccc(C(=O)c2cnn(-c3ccc(F)cc3)c2N)cc1 | > 25 µM | > 25 µM | > 25 µM | > 25 µM | > 25 µM | > 25 µM | > 25 µM | > 25 µM | > 25 µM | > 25 µM | > 25 µM | > 25 µM | > 25 µM | > 25 µM | > 23.1 µM | > 25 µM | > 25 µM | > 25 µM | > 25 µM | > 25 µM
13 | CSc1nc(SC)c2c(C)c(Br)[nH]c2n1 |  | > 100 µM |  | > 100 µM |  | > 100 µM |  | > 100 µM |  | > 100 µM |  | > 100 µM |  | > 100 µM |  | > 100 µM |  | > 100 µM |  | > 100 µM
